Assay results reported in patent US5859037A, “Sulfonylurea-glitazone combinations for diabetes” (Warner-Lambert Company, priority 1997, dated 1999).
Where “and” joins values, the source holds several entries; their conditions need not be identical. Identical values can stand only once.

How the values were obtained:
Type in all cases: in vivo, patients
[1] = tested on: non-insulin dependent diabetes mellitus (NIDDM); experiment: Glycemic control (FSG, HbA1c, responders) in 52-week double-blind clinical study; conditions: for ≥30 mg/dL Reduction in FSG, Responders, N (%) / ≥1% Reduction in HbA1c, Responders, N (%): *p ≤ 0.001 vs glyburide
Excerpt: The method of treating diabetes employing a combination of a sulfonylurea and a glitazone has been established in a long-term controlled clinical evaluation. The study determined the efficacy and safety of troglitazone alone and in combination with the sulfonylurea glyburide for the treatment of non-insulin dependent diabetes mellitus (NIDDM). This study targeted the segment of the NIDDM population in which the disease state has progressed to a point where maximum doses of sulfonylureas no longer produce adequate glycemic control. […] Since the unstimulated (absence of sulfonylurea) insulin secretory capacity of the beta cells is very low in this population, reversing insulin resistance alone would be of partial benefit. Therefore, maintaining a level of stimulated insulin secretion with a sulfonylurea while adding troglitazone to improve insulin sensitivity could provide a level of glycemic control unattainable by either medication alone. […] Long-term safety was also an objective of this study, assessed by adverse events and clinical laboratory data. This was a 12-month, double-blind, randomized, parallel-group, active-control, multicenter study design (FIG. 1). […] The primary efficacy parameters included endpoints related to glucose homeostasis: FSG and HbA1c. The change from baseline in these parameters at Week 52 compared to active control (glyburide) was the primary measure of efficacy. For patients terminating early from the study, their last observation was carried forward (LOCF) to Week 52. A decrease in these parameters was indicative of an improvement in glycemic control. Efficacy analysis was performed on 2 patient populations, intent-to-treat and completers. […] Patients withdrawing from the study before Week 52 were included in the analysis using the LOCF procedure; the last measurement on treatment was substituted for the missing Week 52 measurement. The intent-to-treat patient sample was the primary sample for assessing efficacy. Completers comprised patients in the intent-to-treat sample who completed Week 52. The analysis of change from baseline to Week 52 was performed using analysis of covariance (ANCOVA). The primary model included effects due to treatment and center and baseline as covariate. Treatment-by-baseline and treatment-by-center interactions were also examined in supplemental models. For the primary comparisons of glyburide versus each combination, step-down tests for linear trend in dose response were performed based on the primary model. For the remaining primary pairwise comparisons of glyburide versus each monotherapy, t-tests were performed using the MSE from the analysis of covariance (with a Bonferroni-Holm adjustment). For all comparisons with glyburide, 95 confidence intervals are provided using Dunnett's test. […] For each patient, the baseline measurement for a given parameter was defined as the measurement at Week 0. […] The frequency distribution (number and percentage) of responders were provided by treatment group and visit. For the set of primary treatment comparisons concerning glyburide versus combination therapy, step-down comparisons of responders in each treatment group versus the glyburide group were performed by sequential application of the Cochran-Mantel-Haenszel (CMH) test for linear trend with study centers as strata. […] The CMH test for general association were also used to perform the secondary treatment comparisons as supplemental analysis.

[2] = tested on: non-insulin dependent diabetes mellitus (NIDDM); experiment: Patient disposition (withdrawal, completion)
Excerpt: This was a 12-month, double-blind, randomized, parallel-group, active-control, multicenter study design (FIG. 1). […] Patients could withdraw voluntarily at any time during the study or be withdrawn by the investigator because of significant adverse events or deterioration in health, poor compliance, pregnancy, or prolonged symptomatic hyperglycemia or persistent worsening or failure to improve glycemic control as monitored by FSG.

[3] = tested on: lipid parameters (markers of lipid metabolism); experiment: Fasting serum lipid profile in 52-week clinical study
Description: After an initial screening visit, patients meeting the inclusion criteria entered a 4-week baseline phase (unblinded) in which they received 12 mg micronized glyburide (6 mg BID).
Secondary efficacy parameters included markers of glycemic homeostasis (insulin and C-peptide) and markers of lipid metabolism (total cholesterol, total triglycerides, HDL, VLDL, LDL (measured), free fatty acids, Lp(a), Apo A1, and Apo B).
Efficacy analysis was performed on 2 patient populations, intent-to-treat and completers. […] Patients withdrawing from the study before Week 52 were included in the analysis using the LOCF procedure; the last measurement on treatment was substituted for the missing Week 52 measurement. The intent-to-treat patient sample was the primary sample for assessing efficacy. Completers comprised patients in the intent-to-treat sample who completed Week 52.
Summary statistics for baseline, follow-up (post-randomization), and change from baseline in secondary efficacy parameters were computed by treatment group and visit. For each patient, the baseline measurements for insulin, C-peptide, blood pressure, total cholesterol, triglycerides, LDL, HDL, VLDL, and free fatty acids were defined as the measurement at Week 0. In order to reduce variability, the baseline Apo A, Apo B, and Lp(a) levels were defined as the average of the respective measurements at Weeks -1 and 1. Similarly, the end-of-treatment Apo A, Apo B, and Lp(a) measurements were defined as the average of the respective measurements at Weeks 48 and 52. Averages from Weeks 20 and 24 were not carried forward for these special lipid parameters.
Fasting serum lipid profiles were determined at baseline and periodically through Week 52. Apo A1, Apo B, and Lp(a) were determined only at baseline, Month 6, and Month 12 as part of a special laboratory panel.

[4] = Completers, Week 52, troglitazone 200 mg, or 200 mg/12 mg in combination
[5] = Completers, Week 52, troglitazone 200 mg, or 200 mg/12 mg in combination, *p ≤ 0.05, **p ≤ 0.0001
[6] = Completers, Week 52, troglitazone 400 mg, or 400 mg/12 mg in combination
[7] = Completers, Week 52, troglitazone 600 mg, or 600 mg/12 mg in combination
[8] = ITT, Week 52, troglitazone 200 mg, or 200 mg/12 mg in combination
[9] = ITT, Week 52, troglitazone 200 mg, or 200/12 mg in combination
[10] = ITT, Week 52, troglitazone 400 mg, or 400 mg/12 mg in combination, *p ≤ 0.001, **p ≤ 0.0001
[11] = ITT, Week 52, troglitazone 400 mg, or 400/12 mg in combination
[12] = ITT, Week 52, troglitazone 600 mg, or 600 mg/12 mg in combination, *p ≤ 0.001, **p ≤ 0.0001
[13] = ITT, Week 52, troglitazone 600 mg, or 600/12 mg in combination
[14] = troglitazone 200 mg, or 200 mg/12 mg in combination
[15] = troglitazone 400 mg, or 400 mg/12 mg in combination
[16] = troglitazone 600 mg, or 600 mg/12 mg in combination

SMILES: Cc1c(C)c2c(c(C)c1O)CCC(C)(COc1ccc(CC3SC(=O)NC3=O)cc1)O2 (centres unmarked) [Troglitazone]
- Fasting Serum Glucose, Adjusted Mean Change From Baseline (SE) [1, 4]: 13.4 (12.0) mg/dL
- Hemoglobin A1c, Adjusted Mean Change From Baseline (SE) [1, 4]: 0.55 (0.38) %
- Fasting Serum Glucose, Adjusted Mean Difference From Glyburide Monotherapy (SE) [1, 5]: 0.3 (14.6) mg/dL
- Hemoglobin A1c, Adjusted Mean Difference From Glyburide Monotherapy (SE) [1, 5]: -0.23 (0.46) %
- Fasting Serum Glucose, Adjusted Mean Change From Baseline (SE) [1, 6]: -20.5 (9.4) mg/dL
- Hemoglobin A1c, Adjusted Mean Change From Baseline (SE) [1, 6]: -0.25 (0.29) %
- Fasting Serum Glucose, Adjusted Mean Change From Baseline (SE) [1, 7]: -11.7 (9.8) mg/dL
- Hemoglobin A1c, Adjusted Mean Change From Baseline (SE) [1, 7]: -0.26 (0.30) %
- Fasting Serum Glucose, Adjusted Mean Difference From Glyburide Monotherapy (SE) ([1]; Completers, Week 52, troglitazone 600 mg, or 600 mg/12 mg in combination, *p ≤ 0.05, **p ≤ 0.0001): -24.8 (12.6) mg/dL
- Fasting Serum Glucose, Adjusted Mean Change From Baseline (SE) ([1]; ITT, Week 52 (Month 12), troglitazone 200 mg, or 200 mg/12 mg in combination): 42.4 (7.0) mg/dL
- Fasting Serum Glucose, Adjusted Mean Change From Baseline (SE) ([1]; ITT, Week 52 (Month 12), troglitazone 400 mg, or 400 mg/12 mg in combination): 20.6 (7.0) mg/dL
- Fasting Serum Glucose, Adjusted Mean Change From Baseline (SE) ([1]; ITT, Week 52 (Month 12), troglitazone 600 mg, or 600 mg/12 mg in combination): 11.1 (7.1) mg/dL
- FSG versus glyburide (result in words) ([1]; ITT, Week 52, 400 and 600 mg troglitazone monotherapy): these decreases were not significant
- Hemoglobin A1c, Adjusted Mean Change From Baseline (SE) [1, 8]: 1.92 (0.20) %
- Fasting Serum Glucose, Adjusted Mean Difference From Glyburide Monotherapy (SE) ([1]; ITT, Week 52, troglitazone 200 mg, or 200 mg/12 mg in combination, *p ≤ 0.001, **p ≤ 0.0001): 19.6 (9.7) mg/dL
- Hemoglobin A1c, Adjusted Mean Change From Baseline (SE) ([1]; ITT, Week 52, troglitazone 200 mg, or 200 mg/12 mg in combination, listed as troglitazone): 1.92%
- ≥30 mg/dL Reduction in FSG, Responders, N (%) [1, 9]: 11 (14) N (%)
- ≥1% Reduction in HbA1c, Responders, N (%) [1, 9]: 3 (4) N (%)
- Hemoglobin A1c, Adjusted Mean Change From Baseline (SE) ([1]; ITT, Week 52, troglitazone 400 mg, or 400 mg/12 mg in combination): 0.85 (0.20) %
- Fasting Serum Glucose, Adjusted Mean Difference From Glyburide Monotherapy (SE) [1, 10]: -2.2 (9.7) mg/dL
- Hemoglobin A1c, Adjusted Mean Difference From Glyburide Monotherapy (SE) [1, 10]: -0.05 (0.28) %
- ≥30 mg/dL Reduction in FSG, Responders, N (%) [1, 11]: 20 (26) N (%)
- ≥1% Reduction in HbA1c, Responders, N (%) [1, 11]: 13 (17) N (%)
- Hemoglobin A1c, Adjusted Mean Change From Baseline (SE) ([1]; ITT, Week 52, troglitazone 600 mg, or 600 mg/12 mg in combination): 0.93 (0.20) %
- Fasting Serum Glucose, Adjusted Mean Difference From Glyburide Monotherapy (SE) [1, 12]: -11.6 (9.7) mg/dL
- Hemoglobin A1c, Adjusted Mean Difference From Glyburide Monotherapy (SE) [1, 12]: 0.03 (0.28) %
- ≥30 mg/dL Reduction in FSG, Responders, N (%) [1, 13]: 18 (24) N (%)
- ≥1% Reduction in HbA1c, Responders, N (%) [1, 13]: 8 (11) N (%)
- HbA1c versus glyburide monotherapy (result in words) ([1]; completers, 400 and 600 mg troglitazone monotherapy, p ≤0.05): HbA1c decreased significantly (p ≤0.05) compared with glyburide monotherapy
- withdrawal for lack of efficacy ([2]; 200 mg troglitazone): ~60% and 55%
- Withdrawn, Adverse Event, Number (%) of Patients [2, 14]: 6 (7.7) Number (%) of Patients
- Withdrawn, Lack of Efficacy, Number (%) of Patients [2, 14]: 43 (55.1) Number (%) of Patients
- Withdrawn, Adverse Event, Number (%) of Patients [2, 15]: 7 (8.6) Number (%) of Patients
- Withdrawn, Lack of Efficacy, Number (%) of Patients [2, 15]: 32 (39.5) Number (%) of Patients
- Withdrawn, Adverse Event, Number (%) of Patients [2, 16]: 6 (7.7) Number (%) of Patients
- Withdrawn, Lack of Efficacy, Number (%) of Patients [2, 16]: 34 (43.6) Number (%) of Patients
- HDL adjusted mean change, difference from glyburide ([3]; 600 mg troglitazone monotherapy, p<0.05): 4.9 mg/dL
- Apo A1, Change From Baseline, Mean [3, 8]: 1.9 mg/dL
- Apo B, Change From Baseline, Mean [3, 8]: 6.4 mg/dL
- Free Fatty Acids, Change From Baseline, Mean [3, 8]: -0.09 mEq/L
- Free Fatty Acids, Change From Baseline, Median [3, 8]: -0.04 mEq/L
- HDL Cholesterol, Change From Baseline, Mean [3, 8]: 0.86 mg/dL
- HDL Cholesterol, Change From Baseline, Median [3, 8]: 1.00 mg/dL
- LDL Cholesterol, Change From Baseline, Mean [3, 8]: 17.78 mg/dL
